Test results published in ChEMBL document CHEMBL1201862, “PubChem BioAssay data set” (2004).
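Interpolation was linear, between the two tested concentrations surrounding the appropriate level; five concentrations were tested over 48 hours in 96-well plates. Here, GI50 denotes the concentration required for 50% inhibition of growth.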 Calls of active or inactive are those of the source. Rule as the data show it: active = GI50 up to about 1.1 µM and inactive = higher.

Experiments:
Test in all cases: growth of human tumour cells (NCI), 48 h
[1] = system: SK-MEL-5
[2] = system: PC-3
[3] = system: OVCAR-8
[4] = system: SNB-19
[5] = system: U-251
[6] = system: SF-539
[7] = system: HL-60
[8] = system: HOP-92
[9] = system: MCF7
[10] = system: HOP-62
[11] = system: SK-MEL-28
[12] = system: SK-MEL-2
[13] = system: CCRF-CEM
[14] = system: SNB-75
[15] = system: DU-145
[16] = system: Malme-3M
[17] = system: T47D
[18] = system: HCC 2998
[19] = system: RPMI-8226
[20] = system: IGROV-1
[21] = system: SF-295
[22] = system: MOLT-4
[23] = system: UACC-257
[24] = system: NCI-H23
[25] = system: TK-10
[26] = system: 786-0
[27] = system: A498
[28] = system: A549
[29] = system: RXF 393
[30] = system: Hs-578T
[31] = system: OVCAR-4
[32] = system: UACC-62
[33] = system: NCI-H226
[34] = system: HCT-15
[35] = system: MDA-MB-435
[36] = system: UO-31
[37] = system: NCI-H460
[38] = system: LOX IMVI
[39] = system: SW-620
[40] = system: HT-29
[41] = system: KM12
[42] = system: M14
[43] = system: NCI/ADR-RES
[44] = system: COLO 205
[45] = system: SN12C
[46] = system: MDA-MB-231
[47] = system: SK-OV-3
[48] = system: SR
[49] = system: K562
[50] = system: MDA-N
[51] = system: OVCAR-3
[52] = system: CAKI-1
[53] = system: BT-549
[54] = system: SF-268
[55] = system: HCT-116
[56] = system: OVCAR-5
[57] = system: EKVX

Compound: C=CC(CCc1ccc(C(=O)OCC)cc1)c1c(N)nc(N)[nH]c1=O (centres undefined)
- GI50 [1]: 23.5 µM (inactive)
- GI50 [2]: 52.6 µM (inactive)
- GI50 [3]: 95.1 µM (inactive)
- GI50 [4]: > 100 µM (inactive)
- GI50 [5]: > 100 µM (inactive)
- GI50 [6]: > 100 µM (inactive)
- GI50 [7]: 28.5 µM (inactive)
- GI50 [8]: 12.6 µM (inactive)
- GI50 [9]: 87.7 µM (inactive)
- GI50 [10]: > 100 µM (inactive)
- GI50 [11]: > 100 µM (inactive)
- GI50 [12]: > 100 µM (inactive)
- GI50 [13]: 73.3 µM (inactive)
- GI50 [14]: 47.8 µM (inactive)
- GI50 [15]: > 100 µM (inactive)
- GI50 [16]: 89.9 µM (inactive)
- GI50 [17]: 72.4 µM (inactive)
- GI50 [18]: > 100 µM (inactive)
- GI50 [19]: 44.8 µM (inactive)
- GI50 [20]: > 100 µM (inactive)
- GI50 [21]: 57.8 µM (inactive)
- GI50 [22]: 59.4 µM (inactive)
- GI50 [23]: 35.1 µM (inactive)
- GI50 [24]: 91.8 µM (inactive)
- GI50 [25]: 60.3 µM (inactive)
- GI50 [26]: > 100 µM (inactive)
- GI50 [27]: 21.2 µM (inactive)
- GI50 [28]: > 100 µM (inactive)
- GI50 [29]: > 100 µM (inactive)
- GI50 [30]: > 100 µM (inactive)
- GI50 [31]: 27.2 µM (inactive)
- GI50 [32]: > 100 µM (inactive)
- GI50 [33]: 84.9 µM (inactive)
- GI50 [34]: > 100 µM
- GI50 [35]: > 100 µM (inactive)
- GI50 [36]: 43.7 µM (inactive)
- GI50 [37]: > 100 µM (inactive)
- GI50 [38]: 45.3 µM (inactive)
- GI50 [39]: > 100 µM (inactive)
- GI50 [40]: 72.8 µM (inactive)
- GI50 [41]: > 100 µM (inactive)
- GI50 [42]: > 100 µM (inactive)
- GI50 [43]: > 100 µM (inactive)
- GI50 [44]: > 100 µM (inactive)
- GI50 [45]: > 100 µM (inactive)
- GI50 [46]: > 100 µM (inactive)
- GI50 [47]: > 100 µM (inactive)
- GI50 [48]: > 100 µM (inactive)
- GI50 [49]: > 100 µM (inactive)
- GI50 [50]: 76.6 µM (inactive)
- GI50 [51]: 72.1 µM (inactive)
- GI50 [52]: 86.3 µM (inactive)
- GI50 [53]: > 100 µM (inactive)
- GI50 [54]: > 100 µM (inactive)
- GI50 [55]: > 100 µM (inactive)

Compound: O=C1CC(=O)c2c(O)cc(O)c(c2O)-c2c(ccc(O)c2O)C2=CC(=O)c3c(O)cc(O)c(c3O2)-c2c1ccc(O)c2O.O=C1CC2(O)Oc3c1c(O)cc(O)c3-c1c(ccc(O)c1O)-c1cc(=O)c3c(O)cc(O)c(c3o1)-c1c2ccc(O)c1O
- GI50 [56]: > 50 µM (inactive)
- GI50 [1]: > 50 µM (inactive)
- GI50 [2]: > 50 µM (inactive)
- GI50 [3]: > 50 µM (inactive)
- GI50 [4]: > 50 µM (inactive)
- GI50 [5]: > 50 µM (inactive)
- GI50 [6]: > 50 µM (inactive)
- GI50 [7]: > 50 µM (inactive)
- GI50 [8]: > 50 µM (inactive)
- GI50 [9]: > 50 µM (inactive)
- GI50 [10]: > 50 µM (inactive)
- GI50 [11]: > 50 µM (inactive)
- GI50 [12]: > 50 µM (inactive)
- GI50 [13]: > 50 µM (inactive)
- GI50 [14]: > 50 µM (inactive)
- GI50 [15]: > 50 µM (inactive)
- GI50 [16]: > 50 µM (inactive)
- GI50 [17]: > 50 µM (inactive)
- GI50 [18]: > 50 µM (inactive)
- GI50 [20]: > 50 µM (inactive)
- GI50 [21]: > 50 µM (inactive)
- GI50 [22]: > 50 µM (inactive)
- GI50 [23]: > 50 µM (inactive)
- GI50 [24]: > 50 µM (inactive)
- GI50 [25]: > 50 µM (inactive)
- GI50 [27]: > 50 µM (inactive)
- GI50 [28]: > 50 µM (inactive)
- GI50 [29]: > 50 µM (inactive)
- GI50 [30]: > 50 µM (inactive)
- GI50 [31]: > 50 µM (inactive)
- GI50 [32]: > 50 µM (inactive)
- GI50 [33]: > 50 µM (inactive)
- GI50 [34]: > 50 µM
- GI50 [35]: > 50 µM (inactive)
- GI50 [36]: > 50 µM (inactive)
- GI50 [37]: > 50 µM (inactive)
- GI50 [38]: > 50 µM (inactive)
- GI50 [39]: > 50 µM (inactive)
- GI50 [40]: > 50 µM (inactive)
- GI50 [42]: > 50 µM (inactive)
- GI50 [43]: > 50 µM (inactive)
- GI50 [57]: > 50 µM (inactive)
- GI50 [44]: > 50 µM (inactive)
- GI50 [45]: > 50 µM (inactive)
- GI50 [46]: > 50 µM (inactive)
- GI50 [47]: > 50 µM (inactive)
- GI50 [48]: > 50 µM (inactive)
- GI50 [49]: > 50 µM (inactive)
- GI50 [50]: > 50 µM (inactive)
- GI50 [51]: > 50 µM (inactive)
- GI50 [52]: > 50 µM (inactive)
- GI50 [53]: > 50 µM (inactive)
- GI50 [54]: > 50 µM (inactive)
- GI50 [55]: > 50 µM (inactive)
